From US9012439B2, “Use of electrophilic compounds for inducing platelet production or maintaining platelet function” (University of Rochester, priority 2007, dated 2015)
Entries after “also recorded” stand apart in the source; their conditions may differ.

Key:
Meg-01 cells [1] = experiment: Platelet production from Meg-01 cells (flow cytometry); format: cell-based, human
Experimental: (§1) Meg-01 and M07e cells were purchased from the American Type Culture Collection (Rockville, Md.) and Dami cells were a generous gift from Dr. Patricia J. Simpson-Haidaris (University of Rochester). All cells were cultured in RPMI-1640 tissue culture medium (Invitrogen) supplemented with 5% fetal bovine serum (FBS; Invitrogen), 10 mM HEPES (N-2-hydroxyethylpiperazine-N′-2-ethanesulfonic acid; Sigma), 2 mM L-glutamine (Invitrogen), 4.5 g/L glucose (Invitrogen), and 50 μg/mL gentamicin (Invitrogen). M07e cells were also supplemented with 100 ng/mL of granulocyte monocyte-colony stimulating factor (GM-CSF, R&D Systems). All treatments were performed in normal growth media. Dimethyl sulfoxide (DMSO) was used as a vehicle (control) in the experiments described below.
Platelets were isolated from megakaryocytes by centrifugation at 150 xg for 10 min. Supernatants underwent sequential centrifugation (500 xg for 10 min and 1000×g for 10 min). The remaining platelet pellet was fixed then permeabilized with a CD61 or CD41 antibody. 7-AAD (BD Pharmingen) was added for 10 min before analyzing the cells by flow cytometry. Platelets were identified using three well-described parameters (Patel et al., “The Biogenesis of Platelets from Megakaryocyte Proplatelets,” J Clin Invest 115:3348-3354 (2005); Breton-Gorius et al., “Expression of Platelet Proteins During the In Vitro and In Vivo Differentiation of Megakaryocytes and Morphological Aspects of Their Maturation,” Semin Hematol 23:43-67 (1986); Ogura et al., “Establishment of a Novel Human Megakaryoblastic Leukemia Cell Line, MEG-01, With Positive Philadelphia Chromosome,” Blood 66:1384-1392 (1985) and Franks et al., “A Fluorescence Microscopy Method for Quantifying Levels of Prostaglandin Endoperoxide H Synthase-1 and CD-41 in MEG-01 Cells,” Biol Proced Online 3:54-63 (2001), each of which is hereby incorporated by reference in its entirety), size (using normal human platelets as a control), presence of CD61 or CD41 and lack of DNA as determined by the absence of 7-AAD staining Ten thousand platelet events were collected and platelets were quantified by rate (platelet events/second) (Chung et al., “Platelet Activation in Acute, Decompensated Congestive Heart Failure,” Thromb Res 120:709-713 (2007), which is hereby incorporated by reference in its entirety.
A 19 by target sequence was selected to knock down PPARγ. PPARγ was cloned downstream of the RNA polymerase III U6 promoter and subcloned into a FG12 lentiviral vector which expresses green fluorescent protein (GFP) under the Ubiquitin C promoter. HEK 293 cells expressing this siRNA PPARγ had reduced PPARγ protein levels. To make the lentivirus, HEK 293 cells were co-transfected with 3 plasmids: the envelope vector (CMV-VSVG), the transfer vector (FG12-shRNAPPAR), and the packaging construct (pCMVΔ89.2 (gag/pol proteins)). Viral supernatants were collected every 8 h for 2 days and concentrated by ultracentrifugation at 50,000×g for 2 h at 4° C. using a Beckman SW 28 rotor. Viral titers were determined by infection of HeLa cells with serial dilutions of the viral stocks. Meg-01 cells were infected at a multiplicity of infection (MOI) of 20. After 48 h, approximately 56% of the PPARγ siRNA cells were transduced as determined by flow cytometry. The GFP positive (+) cells were then sorted by FACS and grown in RPMI with 5% FBS.

Dami cells = experiment: Platelet production from Dami cells (flow cytometry); format: cell-based; conditions: 10 μM, 24 h
Experimental: as §1
Platelets were isolated from megakaryocytes by centrifugation at 150 xg for 10 min. Supernatants underwent sequential centrifugation (500 xg for 10 min and 1000×g for 10 min). The remaining platelet pellet was fixed then permeabilized with a CD61 or CD41 antibody. 7-AAD (BD Pharmingen) was added for 10 min before analyzing the cells by flow cytometry. […]

PPARγ = biological target: T1, PPARγ (Homo sapiens, UniProt P37231); experiment: PPARγ gene reporter analysis (PPRE-luciferase) in Meg-01 cells; format: cell-based; conditions: 10 μM, 24 h after ligand treatment
T1 construct: Meg-01 cells were plated at a density of […] cells per well in a E-well plate and transfected; endogenous in cells; host or cells: Meg-01 cells
T1 sequence (P37231 1-505): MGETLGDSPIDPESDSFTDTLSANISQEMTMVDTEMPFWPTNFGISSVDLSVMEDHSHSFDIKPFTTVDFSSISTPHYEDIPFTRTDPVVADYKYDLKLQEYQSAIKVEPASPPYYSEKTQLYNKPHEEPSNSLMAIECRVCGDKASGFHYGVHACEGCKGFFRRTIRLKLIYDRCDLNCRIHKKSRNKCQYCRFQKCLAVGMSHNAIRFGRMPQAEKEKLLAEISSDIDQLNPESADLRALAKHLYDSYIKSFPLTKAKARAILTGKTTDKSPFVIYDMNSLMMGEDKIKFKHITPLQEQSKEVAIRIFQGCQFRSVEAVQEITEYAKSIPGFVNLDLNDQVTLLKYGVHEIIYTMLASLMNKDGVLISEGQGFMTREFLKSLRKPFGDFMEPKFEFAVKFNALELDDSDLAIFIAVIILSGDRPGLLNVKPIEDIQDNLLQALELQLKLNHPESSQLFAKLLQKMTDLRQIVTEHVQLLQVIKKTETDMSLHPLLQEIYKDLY
Experimental: Meg-01 cells were plated at a density of […] cells per well in a […] and transfected, using lipofectamine LTX (Invitrogen), with a PPRE (Peroxisome Proliferator Response Element)-luciferase reporter plasmid containing three copies of the ACO-PPRE (a gift from Dr. B. Seed, Massachusetts General Hospital, Boston, Mass.). […] Transfection efficiency was determined by transfecting the cells with green fluorescent protein (GFP) plasmid and determining the percentage of cells that were GFP+ by flow cytometry. […] Luciferase activity was assessed 24 h after ligand treatment using the Promega Luciferase Assay System, and relative light units (RLU) were determined using a Lumicount Microplate Luminometer (Packard Instrument Co., Meriden, Conn.).

Meg-01 cells [2] = experiment: Reactive oxygen species production in Meg-01 cells (carboxy-H2DCFDA, MitoSOX Red); format: cell-based, human; conditions: for percentage of Meg-01 cells that produce mitochondrial superoxide (MitoSOX Red): 10 μM
Experimental: Ten μM carboxy-H2DCFDA was added to cells for 20 min at RT. The cells were washed and immediately analyzed by flow cytometry. Five μM of MitoSOX Red dye in HBSS containing Mg^2+ and Ca^2+ was added to the cells for 15 min at 37° C. The cells were washed in HBSS and analyzed by flow cytometry.

CCCCCC=CC=C1C(=O)C=C[C@@H]1CC=CCCCC(=O)O [15d-PGJ2, 15-deoxy-Δ^12,14 prostaglandin J2]
platelet-enhancing effect after PPARγ protein knock-down (Meg-01 cells [1]; Meg-01 cells infected with PPARγ siRNA lentivirus, 15d-PGJ2 24 h): failed to attenuate the platelet-enhancing effects of 15d-PGJ2 | platelet production (Meg-01 cells [1]; Meg-01 cells, 10 μM, 24 h): increased platelet production; also recorded: enhanced Meg-01 platelet production | platelet production with increasing concentrations (Meg-01 cells [1]; Meg-01 cells, increasing concentrations, 24 h): dose-dependent increase in platelet production | platelet production (Dami cells): increased platelet production | PPARγ activation (PPRE-luciferase activity) (PPARγ): activated PPARγ | percentage of Meg-01 cells that produce mitochondrial superoxide (MitoSOX Red) (Meg-01 cells [2]; 1 h): 43% | percentage of Meg-01 cells that produce mitochondrial superoxide (MitoSOX Red) (Meg-01 cells [2]; 6 h): 31% | percentage of Meg-01 cells that express ROS (carboxy-H2DCFDA) (Meg-01 cells [2]; 1 h): 91% | percentage of Meg-01 cells that express ROS (carboxy-H2DCFDA) (Meg-01 cells [2]; 6 h): 97%
